For data set [1], the system named is imatinib-resistant BCR-ABL mutants. The settings on record: number of mutants / mutants tested; cited from earlier work.
The next data set deals with H1299 cells. In words: MTT assay after 120 hours, IC50. Type of data set: cell-based, Human. The text has this: (§1) Cell lines and cell culture. Human lung cancer cell lines were maintained in RPMI 1640 plus 5% bovine calf serum (BCS). H3255 cells were provided by Dr. Pasi Janne (Dana-Farber, Boston, Mass.) and grown in ACL-4 medium (12). HCC827 cells were provided by Dr. Jon Kurie (M. D. Anderson, Houston, Tex.). PC9 cells were provided by Dr. Matthew Lazzara (Massachusetts Institute of Technology, Boston, Mass.). […]. Gefitinib was provided by AstraZeneca (Wilmington, Del.) and dasatinib by Bristol-Myers Squibb Oncology (Princeton, N.J.). For cell transfection experiments, 2×10^6 HEK293 cells in a 6-cm dish maintained in DMEM/10% BCS were transfected with 1 Ag plasmid DNA for 3 hours using LipofectAMINE 2000 (Invitrogen, Carlsbad, Calif.) and then allowed to go 24 hours before being treated with inhibitors.
(§2) Cytotoxicity and apoptosis assays. Cytotoxicity assays [3-(4,5-dimethylthiazol-2-yl)-2,5-diphenyltetrazolium bromide] were done according to the manufacturer's recommendations (Roche, Indianapolis, Ind.). […] Data presented represent three separate experiments with eight data points per concentration per experiment. Apoptosis [PharMingen (San Diego, Calif.) Apo-BrdU kit] and cell cycle changes (propidium iodide staining and flow cytometry) were assayed as before (13). Data are expressed as mean±SD.

A further data set deals with H157 cells. Put plainly: MTT assay after 120 hours, IC50. Type of data set: cell-based, Human.
Description: as §1, §2

The next data set relates to H1648 cells. Put plainly: MTT assay after 120 hours, IC50. In kind it is cell-based, Human.
Description: as §1, §2

In a further data set the test system is H292 cells. In words: MTT assay after 120 hours, IC50. In kind it is cell-based, Human.
Description: as §1, §2

The next data set concerns H322 cells. Put plainly: MTT assay after 120 hours, IC50. In kind it is cell-based, Human.
Description: as §1, §2

The test system of data set [2] is H358 cells. In words: MTT assay after 120 hours, IC50. Type of data set: cell-based, Human.
Description: as §1, §2

A further data set deals with H2122 cells. Put plainly: MTT assay after 120 hours, IC50. The note with it: Homo sapiens, NCI-H2122, 120 h, read-out: Dasatinib IC50 (Nm). In kind it is cell-based.
Description: as §1, §2

A further data set deals with H226 cells. In words: MTT assay after 120 hours, IC50. Type of data set: cell-based. The settings on record: Homo sapiens, NCI-H226, 120 h, read-out: Dasatinib IC50 (Nm).
Description: as §1, §2

The subject of another data set is H23 cells. Put plainly: MTT assay after 120 hours, IC50. Type of data set: cell-based. The settings on record: Homo sapiens, NCI-H23, 120 h, read-out: Dasatinib IC50 (Nm).
Description: as §1, §2

Data set [3] relates to H441 cells. In words: MTT assay after 120 hours, IC50. The settings on record: Homo sapiens, NCI-H441, 120 h, read-out: Dasatinib IC50 (Nm). In kind it is cell-based.
Description: as §1, §2

A further data set has as its system H460 cells. Put plainly: MTT assay after 120 hours, IC50. Type of data set: cell-based. The settings on record: Homo sapiens, NCI-H460, 120 h, read-out: Dasatinib IC50 (Nm).
Description: as §1, §2

The next data set deals with H1650 cells. Put plainly: Cell viability, dasatinib compared with gefitinib, 72 hours. In kind it is cell-based, Human. The settings on record: H1650 grown in 5% BCS, FIG. 6. The method, then: FIG. 6. presents a series of four graphs, with each graph representative of a different cell line as indicated at the top of the graph.
Cytotoxicity and apoptosis assays. Cytotoxicity assays [3-(4,5-dimethylthiazol-2-yl)-2,5-diphenyltetrazolium bromide] were done according to the manufacturer's recommendations (Roche, Indianapolis, Ind.). Cells (5×10^3) in medium with 5% BCS were placed into single wells in a 96-well plate and exposed to indicated agents, and viability was assessed after 72 hours. Data presented represent three separate experiments with eight data points per concentration per experiment. Apoptosis [PharMingen (San Diego, Calif.) Apo-BrdU kit] and cell cycle changes (propidium iodide staining and flow cytometry) were assayed as before (13). Data are expressed as mean±SD.

Data set [4] deals with pAkt, cleaved PARP in PC9 cells. Put plainly: Western analysis of pAkt, pSTAT3 and cleaved PARP. In kind it is cell-based, Human. The note with it: 24 hours; for PARP cleavage: gefitinib at 50 nmol/L, dasatinib at increasing concentrations.
The test system of data set [5] is pAkt, pSTAT3, cleaved PARP in H3255 cells. In words: Western analysis of pAkt, pSTAT3 and cleaved PARP. In kind it is cell-based, Human. The note with it: increasing concentrations, 24 hours.
Data set [6] concerns pAkt, pSTAT3, cleaved PARP in H1650 cells. In words: Western analysis of pAkt, pSTAT3 and cleaved PARP. In kind it is cell-based, Human. The note with it: 24 hours; for pSTAT3: H1650, any growth conditions.
Data set [7] concerns pAkt, pSTAT3, cleaved PARP in H1975 cells. In words: Western analysis of pAkt, pSTAT3 and cleaved PARP. Type of data set: cell-based, Human. The note with it: 24 hours.
Data set [8] relates to pTyr416 Src (pSrc) family in PC9 cells. In words: Western analysis of Src phosphorylation status. Type of data set: cell-based, Human. The note with it: 24 hours.
The test system of data set [9] is pTyr416 Src (pSrc) family in H1650 cells. Put plainly: Western analysis of Src phosphorylation status. Type of data set: cell-based, Human.
Data set [10] has as its system pTyr416 Src (pSrc) family in H1975 cells. In words: Western analysis of Src phosphorylation status. Type of data set: cell-based, Human. The settings on record: 24 hours, dasatinib at 50 nmol/L.
Data set [11] deals with pFAK, pSTAT3, pAkt, pERK in A549 cells. Put plainly: Western analysis of pFAK, pSTAT3, pAkt, pERK. The note with it: 500 nmol/L, 3 hours. In kind it is cell-based, Human.
In the next data set the test system is A549 cells. In words: Cell cycle profile and cyclin D/p27 Western analysis. Type of data set: cell-based, Human. The note with it: 24 hours, gefitinib 1 μmol/L, dasatinib 500 nmol/L; for cell cycle profile: FIG. 12; for cyclin D3 and p27 proteins: FIG. 13.
In data set [12] the test system is H441 cells. Put plainly: Combination effect in cell viability assays, median dose effect method. In kind it is cell-based, Human. The note with it: dose range used. The procedure:
Combination effects were evaluated by median dose effect method.

Data set [13] deals with H358 cells. The note with it: 24 hours, gefitinib 1 μmol/L, dasatinib 500 nmol/L, or the combination.
For data set [14] the following is noted: dosing for CML; ODAC briefing document; cited from earlier work.
[15] abbreviates: H1650 grown in 5% BCS, dasatinib at 50 nmol/L.
The mark [16] stands for this setting: H1650 in low serum with exogenous EGF, 50 nmol/L.

Turning to `Cc1cn(-c2cc(NC(=O)c3ccc(C)c(Nc4nccc(-c5cccnc5)n4)c3)cc(C(F)(F)F)c2)cn1` [AMN107], the “imatinib-resistant BCR-ABL mutants against which significantly active” value in [1] is 32/33.
Regarding `Cc1nc(Nc2ncc(C(=O)Nc3c(C)cccc3Cl)s2)cc(N2CCN(CCO)CC2)n1` [dasatinib, N-(2-chloro-6-methylphenyl)-2-[[6-[4-[(2-hydroxyethyl)-1-pipperazinyl]-2-methyl-4-pyrimidinyl]amino]-5-thiazolecarboxamide, monohydrate], the “SRC Sensitivity” value with H1299 cells (H1299, Large Cell, EGFR WT, MTT 120 hours) is listed as “S (SRC TKI Sensitivity Definition: IC50 less than 100 nM)”; with H157 cells (H157, Squamous, EGFR WT, MTT 120 hours) it was “S (SRC TKI Sensitivity Definition: IC50 less than 100 nM)”; in the data set with H1648 cells (H1648, Adeno, EGFR WT, MTT 120 hours), “S (SRC TKI Sensitivity Definition: IC50 less than 100 nM)”; in the data set with H292 cells (H292, Squamous, EGFR WT, MTT 120 hours), “S (SRC TKI Sensitivity Definition: IC50 less than 100 nM)”; in the data set on H322 cells (H322, BAC, EGFR WT, MTT 120 hours), “S (SRC TKI Sensitivity Definition: IC50 less than 100 nM)”; in the data set on H358 cells [2] (H358, BAC, EGFR WT, MTT 120 hours) it was “S (SRC TKI Sensitivity Definition: IC50 less than 100 nM)”. Besides, the IC50 with H1299 cells (Homo sapiens, NCI-H1299, 120 h, read-out: Dasatinib IC50 (Nm)) was found to be 31.6 nM; in the data set on H157 cells (Homo sapiens, NCI-H157, 120 h, read-out: Dasatinib IC50 (Nm)) it was 48.9 nM; with H1648 cells (Homo sapiens, NCI-H1648, 120 h, read-out: Dasatinib IC50 (Nm)), 20.9 nM; in the data set with H292 cells (Homo sapiens, NCI-H292, 120 h, read-out: Dasatinib IC50 (Nm)) it was 28.4 nM; in the data set with H322 cells (Homo sapiens, NCI-H322, 120 h, read-out: Dasatinib IC50 (Nm)), 11.6 nM; with H358 cells [2] (Homo sapiens, NCI-H358, 120 h, read-out: Dasatinib IC50 (Nm)), 27.4 nM. In addition, the IC50 with H2122 cells is 486 nM; with H226 cells, 709 nM; in the data set with H23 cells, above 2000 nM; in the data set with H441 cells [3] it was above 2000 nM; in the data set on H460 cells, above 2000 nM. For the same compound, the “cell viability, dasatinib versus gefitinib” value with H1650 cells is recorded as “inhibited cell viability more than gefitinib”. Also, the PARP cleavage result in data set [4] is “associated changes in PARP cleavage”; in [5], “increase in PARP cleavage”; in data set [6] (H1650 grown in 5% BCS), “induction of PARP cleavage”; in data set [7], “no PARP cleavage”. Further, the values for the pAkt result in data set [4] (increasing concentrations), in data set [6] (setting [15]) and in data set [6] (setting [16]) were “dose-dependent inhibition of pAkt”, “inhibits pAkt” and “inhibit pAkt”, respectively. For the same compound, the “pAkt and pSTAT3” value in data set [5] is “concentration-dependent decrease of both pAkt and pSTAT3”. In addition, the pSTAT3 entry in data set [6] is “No effect”. Besides, in [6] (H1650 in low serum with exogenous EGF), the “degree of PARP cleavage, dasatinib versus gefitinib” value is on record as “degree of PARP cleavage is higher”. In data set [7], the “pAkt or pSTAT3” value is “neither gefitinib nor dasatinib affects”. The results for the pSrc entry in data set [8] (50 nmol/L) and in [10] were “inhibits pSrc” and “completely inhibits the low levels of pSrc”, respectively. The “autophosphorylation of Tyr416 on Src family members (pSrc)” value in data set [9] (H1650 cells, 50 nmol/L, monohydrate) is listed as “completely inhibits pSrc”. Further, the pFAK entry in data set [11] is on record as “reduction in pFAK”. Also, the “pSTAT3, pAkt, or pERK” value in data set [11] is listed as “no significant reductions”. Moreover, the cell cycle profile entry in the data set with A549 cells was “cell cycle arrest characterized by increased G1 fraction and reduced S-phase fraction”. In addition, the “cyclin D3 and p27 proteins” value with A549 cells is “decline in cyclin D3 and an increase in p27”. For the same compound, the “effect on cell viability” value in the data set with H441 cells [12] is recorded as “no effect”. In addition, the “G1 cell cycle arrest” value with H358 cells [13] is “G1 cell cycle arrest to the same extent”. The “cyclins D1 and D3 and p27 protein levels” value in the data set on H358 cells [13] is “reduced cyclins D1 and D3 and increased p27 protein levels”. Also, in data set [14], the Cmax was 60 to 120 nM.
With `COc1cc2ncnc(Nc3ccc(F)c(Cl)c3)c2cc1OCCCN1CCOCC1` [gefitinib], the pAkt entry in data set [4] (50 nmol/L) is reported as “completely inhibits pAkt”; in data set [6] (setting [15]) it was “minimal effect on pAkt”; in data set [6] (setting [16]), “inhibit pAkt”. For the same compound, the PARP cleavage result in data set [4] is given as “induces PARP cleavage”; in data set [6] (H1650 grown in 5% BCS), “degree of PARP cleavage is less”; in data set [7] it was “no PARP cleavage”. For the same compound, the pSTAT3 result in data set [6] was “No effect”. The “pAkt or pSTAT3” value in data set [7] is “neither gefitinib nor dasatinib affects”. The pSrc result was “decrease in pSrc” in data set [8] (250 nmol/L); “incomplete” in [8] (1 μmol/L); “incomplete” in [9] (H1650, increasing concentrations, 24 hours); “minimal changes” in data set [10]. Besides, in the data set with A549 cells, the cell cycle profile entry is listed as “no effect”. Besides, in the data set with A549 cells, the “cyclin D3 and p27 proteins” value is on record as “no changes”. For the same compound, the “G1 cell cycle arrest” value in the data set with H358 cells [13] is reported as “G1 cell cycle arrest to the same extent”. For the same compound, the “cyclins D1 and D3 and p27 protein levels” value with H358 cells [13] was “reduced cyclins D1 and D3 and increased p27 protein levels”.

Source of the values: US20100004257A1 (University of South Floria, priority 2007, published 2010).
